Test [1] has as its system mouse anti-HPV16 E7 mAb ED17. Briefly: Dot immunoassay with anti-HPV16 E7 mAb ED17. It counts as binding. To be noted: for Binding to mAb ED17 in dot immunoassay: 15-mer peptide spotted on membrane, primary antibody 1:500; for Linear determinant recognized by mAb ED17 (epitope mapping): dot immunoassays using 6-mer peptides offset by one residue. How it is done: The peptides corresponding to the three peptide sequences were synthetized and used as antigens in dot immunoassay experiments with MAb-ED17, a mouse monoclonal IgG, raised to the full length E7 oncoprotein. Peptide purity was controlled by analytical HPLC, and the molecular mass of purified peptides confirmed by fast atomic bombardment mass spectrometry. Peptides were dissolved in 0.9% NaCl, aliquoted and stored at −20° C.
Nitrocellulose membranes (Nytran […] pore size, Schleicher & Schüll) were pretreated for 1 min in 4% BSA (bovine serum albumin)/10 mM Tris-HCl, pH 7.5/150 mM NaCl, followed by 10 min activation with 2.5% glutaraldehyde. Peptides (5 Φg) were spotted on the activated membrane, left to dry for 1 hr at room temperature, and probed in phosphate-buffered saline (PBS) containing 4% BSA, 0.1% (v/v) Tween 20, and the primary antibody (1:500). Primary antibody was mouse anti-HPV16 E7 monoclonal IgG1 raised to amino acids 1-98 representing full length E7 (ED17, cat # sc-6981, Santa Cruz Biotechnology, Inc., Santa Cruz, Calif.). Following a 1 h incubation at room temperature, the membrane was washed three times for 10 mins with PBS containing 4% BSA, 0.1% Tween-20 and incubated with horseradish peroxidase-conjugated affinity-purified sheep anti-mouse IgG for 1 h (1:2500; Santa Cruz Biotechnology). Membrane was washed in PBS (4 times for 5 mins), and immunoblots were developed using the enhanced chemiluminescence detection assay (ECL Western blotting analysis system, Amersham Pharmacia Biotech, Milan, Italy).
The identification of the H2-E^k presented HPV 16 E7 epitope was further ananyzed by epitope mapping. Dot immunoassays by using 6-mer peptides offset by one amino acid residue confirmed that the anti-E7 mAb recognized the linear determinant HPV 16 E52-61 YNIVTFCCKC (SEQ ID NO:108) present in the 15-mer peptide RAHYNIVTFCCKCDS (SEQ ID NO:61), having the highest binding potential to the mouse MHC II molecule, and a low degree of similarity to host proteins.
Four peptides were analyzed for epitopic determinants in dot immunoassay tests: E725-39 YEQLNDSSEEEDEID (control; SEQ ID NO:76); E784-98 MGTLGIVCPICSQKP (SEQ ID NO:71); E72-16 HGDTPTLHEYMLDLQ (SEQ ID No:69); E749-63 RAHYNIVTFCCKCDS (SEQ ID NO:61); and E732-46 SEEEDEIDGPAGQAE (SEQ ID NO:39). […] As expected, high similarity peptide E732-46 SEEEDEIDGPAGQAE (SEQ ID NO:39) was not reactive (FIG. 1, peptide 5).
E749-63 RAHYNIVTFCCKCDS (SEQ ID NO:61) was further analyzed by epitope mapping.

The test system of test [2] is HPV-transformed tumor cells. To be noted: mice; cited from earlier work.
A further test concerns MAb-ED17. Briefly: NMR spectra confirming epitope screening. In kind it is binding, mouse. From the text: To confirm the epitope screening results, NMR spectra were obtained that confirmed the high affinity of MAb-ED17 towards the predicted epitopic peptide RAHYNIVTFCCKCDS (SEQ ID NO:61).

Entries after “also recorded” stand apart in the source; their conditions may differ.

As for “YEQLNDSSEEEDEID (listed as Human papillomavirus)”, the “Binding to mAb ED17 in dot immunoassay” value in test [1] is on record as “no binding”.

Consider “MGTLGIVCPICSQKP (listed as Human papillomavirus)”, for which, in test [1], the “Binding to mAb ED17 in dot immunoassay” value was “not recognized”. With AHYNIVTFCCKC, in test [1], the “Linear determinant recognized by mAb ED17 (epitope mapping)” value is given as “recognized”.

As to “HPV E744-62 peptide: polypeptide comprising amino acids 44-62 of HPV E7 protein (QAEPDRAHYNIVTFCCKCD; UniProt P03129 44-62, looked up, fragment)”, the “Prevention of outgrowth of HPV-transformed tumor cells” value in test [2] is given as “effective for preventing outgrowth”. For “YNIVTFCCKC (listed as Human papillomavirus)”, the “Linear determinant recognized by mAb ED17 (epitope mapping)” value in test [1] is “recognized”. Take “HGDTPTLHEYMLDLQ (listed as Human papillomavirus)”: the “Binding to mAb ED17 in dot immunoassay” value in test [1] is recorded as “not recognized; also recorded: No immune reaction”. Turning to “RAHYNIVTFCCKCDS (listed as Human papillomavirus)”, the “Affinity of MAb-ED17 towards peptide by NMR spectra” value in the test with MAb-ED17 is “high affinity”. Further, the “Binding to mAb ED17 in dot immunoassay” value in test [1] is “Significant binding; also recorded: significant signal”. On to “SEEEDEIDGPAGQAE (listed as Human papillomavirus)”, for which the “Binding to mAb ED17 in dot immunoassay” value in test [1] is given as “not reactive”.

The values above are taken from US20070111261A1, “Antigens” (priority 2001, published 2007).
